Data as given in patent US11674967B2, “Method of identifying potential inhibitors of APO TNFα trimers” (UCB BIOPHARMA SRL, priority 2015, dated 2023).

How the values were obtained:
TNFα [1] = biological target: T1, TNFα (Homo sapiens, UniProt P01375); test: Surface plasmon resonance kinetics of compound binding to immobilised TNFα
Procedure: Surface plasmon resonance was used to measure the association rate, the dissociation rate and the affinity of the compounds of formulae (3) and (15) for TNFα (FIGS. 12A and B). For the purpose of this study a Biacore T100/T200 was used.
TNFα was immobilised at pH5 to a level of 5-8 KRU onto a CMS sensor in HBS-P buffer (10 mM HEPES pH 7.4, 0.15 M NaCl, 0.005% Surfactant P20, BIAcore, GE Healthcare). The TNFα was then equilibrated in HBS-P with 5% DMSO for at least 5 hours. The samples were diluted from 10 mM stocks into DMSO matched buffer and left to solubilise for at least 5 hours. The flow rate was […].
This assay was performed by adding 4 or 5 concentrations of compound starting from a highest concentration of 25 μM for compound of formula (3) and 1 μM for compound of formula (15) and then serially diluting this sample. Background subtraction binding curves were analysed using the BIAevaluation software following standard procedures. Binding, affinity and kinetic parameters were determined using Biacore software. The kinetic data were fitted using the levenberg marquardt algorithm.
Target sequence in this assay (P01375 77-233 limits assumed): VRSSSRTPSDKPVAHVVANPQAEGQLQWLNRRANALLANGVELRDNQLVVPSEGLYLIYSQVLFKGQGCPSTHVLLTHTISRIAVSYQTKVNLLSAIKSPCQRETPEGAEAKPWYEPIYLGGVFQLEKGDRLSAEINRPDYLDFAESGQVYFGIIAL

TNFα [2] = biological target: T1, TNFα; test: Mass spectrometric analysis of compound binding to TNFα (soft ionisation)
Procedure: Mass spectrometry was typically performed using a Waters LCT-premier Time-of-Flight mass spectrometer or a Waters SynaptG2 Q-TOF mass spectrometer. Samples were introduced using an Advion Triversa Nanomate nanoflow infusion device which replaces the conventional spectrometer source, sample injection was via an “A” series chip with […] nozzle size at a nominal flow rate of 100 nl/min. Further modifications to the Waters LCT-premier Time-of-Flight mass spectrometer include a customised source cooling device allowing precise control of the source temperature and a commercial pressure regulation device giving precise control over the vacuum conditions in the source region. Together these modifications help retain the TNFα trimer in a native, folded conformation and facilitate the detection of complexes formed with test compounds of weak affinities.
Ions were generated using standard positive ion electrospray conditions resulting in multiple charging of TNFα.
Mass spectrometry is very sensitive to the buffer salts present in the protein sample. Typical buffer salts such as potassium or sodium phosphates have a severely detrimental affect on ionisation. Accordingly protein samples were pre-treated to remove these salts using a Zeba desalt spin column, the protein being exchanged into a mass spectrometry compatible buffer system, typically 50 mM Ammonium Acetate at pH 6.8.
Typically the test compounds were presented as 10 mM DMSO stock solutions such that when they are incubated with TNFα in solution the final DMSO concentration is 5%. […] This is evidenced by the changes in the number of charges acquired by the protein under the various conditions described.
Test compounds were prepared as 10 mM solutions in dimethylsulphoxide (DMSO). Therefore, it was necessary to establish the effect of DMSO on the native TNFα trimer in the absence of a test compound. […]
Incubation of a library of test compounds, including the compound of formula (3) with TNFα was monitored by mass spectrometry under soft ionization conditions. […]
Target sequence in this assay (P01375 77-233 limits assumed): as above

TNFα [3] = biological target: T1, TNFα; test: LC-MS of size exclusion fractions of TNFα, TNF-R and compound; type: binding; parameters: purchased R&D Systems; conditions: either order of addition
Procedure: Fractions from size exclusion chromatographic separation of mixtures of TNFα, TNF-R and the compound of formula (3) were analysed by liquid chromatography-mass spectrometry (LC-MS). Two samples were prepared for size exclusion chromatography.
Target sequence in this assay (P01375 77-233 limits assumed): as above
Target sequence in this assay (P19438 30-211 partner limits assumed): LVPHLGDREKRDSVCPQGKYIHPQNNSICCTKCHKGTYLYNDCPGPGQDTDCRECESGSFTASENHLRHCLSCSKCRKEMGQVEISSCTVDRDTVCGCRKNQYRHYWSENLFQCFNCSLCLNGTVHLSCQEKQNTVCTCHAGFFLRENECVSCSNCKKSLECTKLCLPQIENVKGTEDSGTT

TNF-R1 = test: HEK-Blue NF-κB reporter gene counterscreen, activating TNF-R1 antibody stimulus; type: cell-based, human; conditions: antibody 300 ng/mL
Procedure: Stimulation of HEK-293 cells by TNF-alpha leads to activation of the NF-kB pathway. The reporter cell line used to determine TNF alpha activity was purchased from Invivogen. HEK-Blue™ CD40L, is a stable transfectant expressing SEAP (secreted alkaline phosphatase) under the control of the IFN-beta minimal promoter fused to 5 NF-kB binding sites. Secretion of SEAP by these cells is stimulated in a concentration dependent manner by TNF-alpha (0.5 ng/ml), IL-1-beta (0.5 ng/ml) and an activating anti-human TNFR1 antibody (300 ng/ml).
Compounds were diluted from 10 mM DMSO stocks (final assay concentration 0.3%) to generate a 10 point 3 fold serial dilution curve (30,000 nM to 2 nM final concentration). They were mixed with stimulating ligand for 1 hour in a 384 well microtitre plate. Freshly thawed and washed cells were added to the compound/stimulus mixture and further incubated for 18 hours. SEAP activity was determined in the supernatant using the colorimetric substrate Quanti-Blue™ (Invivogen).
Percentage inhibitions for compound dilutions were calculated between a DMSO control and maximum inhibition (by excess control compound) and an IC50 calculated using xlfit (4 parameter logistic model) in Activity Base.
The specific activity of the compound of formula (15) against the TNF-alpha response was compared to that seen with the counterscreens (IL-1beta and anti-human TNFR1 antibody).

Cc1ccc(C)c(Cn2c(C(O)c3ccncc3)nc3ccccc32)c1 (stereo not shown) [Compound 3]
dissociation rate constant (koff) (TNFα [1]): 9.46 e^−5 s^−1 | kon (TNFα [1]): 2.668 e^3 M^−1 s^−1 | effect on trimeric TNFα (charge state envelope) (TNFα [2]; 5% v/v DMSO): stabilization of the trimeric TNFα complex | binding to the monomeric form of TNFα (TNFα [2]; soft ionization): not observed to bind | stoichiometry of binding (TNFα [2]; soft ionization): one molecule of the compound of formula (3) per TNFα trimer | binding to TNFα in the presence of TNF-R (TNFα [3]): binds to TNFα even in the presence of TNF-R

Cc1ccc(C)c(Cn2c(C(O)c3ccncc3)nc3ccc(-c4cnn(C)c4)cc32)c1 (stereo not shown) [Compound 15]
inhibition of activation of NF-κB by activating TNF-R1 antibody (TNF-R1): did not inhibit
